In the NIST ThermoML archive (doi:10.1021/acs.jced.7b00201):

Columns and labels:
[1] = 100 kPa, Liquid; for viscosity: Falling or rolling sphere viscometry; for mass density: Vibrating tube method
[2] = xn = mol fraction of the nth substance listed; conditions: 100 kPa, Liquid; for viscosity: Falling or rolling sphere viscometry; for mass density: Vibrating tube method

CCCCC1CCCCC1 [butylcyclohexane]
[1]
Conditions | mass density [kg/m3] | viscosity [mPa·s]
293.15 K | 799.34 | 1.305
298.15 K | 795.59 | 1.202
303.15 K | 791.84 | 1.112
308.15 K | 788.07 | 1.033
313.15 K | 784.3 | 0.963
318.15 K | 780.52 | 0.901
323.15 K | 776.74 | 0.844
328.15 K | 772.93 | 0.794
333.15 K | 769.13 | 0.749
338.15 K | 765.3 | 0.708
343.15 K | 761.47 | 0.67

CCCCC1CCCCC1 [butylcyclohexane] + OCC1CC1
[2], x2 = 0
Conditions | mass density [kg/m3] | viscosity [mPa·s]
293.15 K | 799.34 | 1.305
298.15 K | 795.59 | 1.202
303.15 K | 791.84 | 1.112
308.15 K | 788.07 | 1.033
313.15 K | 784.3 | 0.963
318.15 K | 780.52 | 0.901
323.15 K | 776.74 | 0.844
328.15 K | 772.93 | 0.794
333.15 K | 769.13 | 0.749
338.15 K | 765.3 | 0.708
343.15 K | 761.47 | 0.67

OCC1CC1 [cyclopropylmethanol]
[1]
Conditions | mass density [kg/m3] | viscosity [mPa·s]
293.15 K | 912.99 | 4.029
298.15 K | 908.94 | 3.485
303.15 K | 904.85 | 3.037
308.15 K | 900.74 | 2.661
313.15 K | 896.58 | 2.344
318.15 K | 892.38 | 2.074
323.15 K | 888.13 | 1.843
328.15 K | 883.84 | 1.646
333.15 K | 879.49 | 1.476
338.15 K | 875.07 | 1.328
343.15 K | 870.62 | 1.201

CCCCCCCCCCCC [dodecane]
[1]
Conditions | mass density [kg/m3] | viscosity [mPa·s]
293.15 K | 748.83 | 1.481
298.15 K | 745.23 | 1.355
303.15 K | 741.6 | 1.244
308.15 K | 737.97 | 1.151
313.15 K | 734.33 | 1.066
318.15 K | 730.68 | 0.992
323.15 K | 727.01 | 0.926
328.15 K | 723.35 | 0.867
333.15 K | 719.67 | 0.814
338.15 K | 715.98 | 0.765
343.15 K | 712.28 | 0.724

CCCCCCCCCCCC [dodecane] + CCCCC1CCCCC1
[2], x1 = 1
Conditions | mass density [kg/m3] | viscosity [mPa·s]
293.15 K | 748.83 | 1.481
298.15 K | 745.23 | 1.355
303.15 K | 741.6 | 1.244
308.15 K | 737.97 | 1.151
313.15 K | 734.33 | 1.066
318.15 K | 730.68 | 0.992
323.15 K | 727.01 | 0.926
328.15 K | 723.35 | 0.867
333.15 K | 719.67 | 0.814
338.15 K | 715.98 | 0.765
343.15 K | 712.28 | 0.724

CCCCCCCCCCCC [dodecane] + OCC1CC1
[2], x2 = 0
Conditions | mass density [kg/m3] | viscosity [mPa·s]
293.15 K | 748.83 | 1.481
298.15 K | 745.23 | 1.355
303.15 K | 741.6 | 1.244
308.15 K | 737.97 | 1.151
313.15 K | 734.33 | 1.066
318.15 K | 730.68 | 0.992
323.15 K | 727.01 | 0.926
328.15 K | 723.35 | 0.867
333.15 K | 719.67 | 0.814
338.15 K | 715.98 | 0.765
343.15 K | 712.28 | 0.724
